How the values were obtained:
human CYP11B2 = target: T1, human CYP11B2 (Homo sapiens, UniProt P19099); assay: G-402 cellular enzyme assay, human CYP11B2 (aldosterone release, HTRF); assay type: cell-based; conditions: G-402 cells, 1 μM Deoxycorticosterone
T1 construct: expressed in transfected cells
T1 sequence (P19099 25-503): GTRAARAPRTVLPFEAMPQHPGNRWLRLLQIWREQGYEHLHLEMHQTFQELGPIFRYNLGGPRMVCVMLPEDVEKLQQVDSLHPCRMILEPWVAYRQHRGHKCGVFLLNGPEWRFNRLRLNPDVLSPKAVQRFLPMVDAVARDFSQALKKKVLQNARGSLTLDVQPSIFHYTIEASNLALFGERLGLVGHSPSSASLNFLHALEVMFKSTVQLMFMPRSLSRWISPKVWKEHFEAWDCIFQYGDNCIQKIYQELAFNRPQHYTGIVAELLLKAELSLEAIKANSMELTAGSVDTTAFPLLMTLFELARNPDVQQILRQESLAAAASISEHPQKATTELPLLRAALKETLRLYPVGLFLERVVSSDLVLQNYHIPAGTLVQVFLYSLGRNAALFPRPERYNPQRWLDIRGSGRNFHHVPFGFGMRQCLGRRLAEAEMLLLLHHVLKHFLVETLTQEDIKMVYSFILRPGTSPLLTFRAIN
Outline: (§1)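 Cellular format in stably transfected G-402 cells over 16 h. HTRF quantified aldosterone (CYP11B2, 1 μM deoxycorticosterone substrate) or cortisol (CYP11B1, 1 μM deoxycortisol substrate); EC50 obtained by fitting a 4-parameter sigmoid to dose–response data.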

human CYP11B1 = target: T2, human CYP11B1 (Homo sapiens, UniProt P15538); assay: G-402 cellular enzyme assay, human CYP11B1 (cortisol release, HTRF); assay type: cell-based; conditions: G-402 cells, 1 μM Deoxycortisol
T2 construct: expressed in transfected cells
T2 sequence (P15538 25-503): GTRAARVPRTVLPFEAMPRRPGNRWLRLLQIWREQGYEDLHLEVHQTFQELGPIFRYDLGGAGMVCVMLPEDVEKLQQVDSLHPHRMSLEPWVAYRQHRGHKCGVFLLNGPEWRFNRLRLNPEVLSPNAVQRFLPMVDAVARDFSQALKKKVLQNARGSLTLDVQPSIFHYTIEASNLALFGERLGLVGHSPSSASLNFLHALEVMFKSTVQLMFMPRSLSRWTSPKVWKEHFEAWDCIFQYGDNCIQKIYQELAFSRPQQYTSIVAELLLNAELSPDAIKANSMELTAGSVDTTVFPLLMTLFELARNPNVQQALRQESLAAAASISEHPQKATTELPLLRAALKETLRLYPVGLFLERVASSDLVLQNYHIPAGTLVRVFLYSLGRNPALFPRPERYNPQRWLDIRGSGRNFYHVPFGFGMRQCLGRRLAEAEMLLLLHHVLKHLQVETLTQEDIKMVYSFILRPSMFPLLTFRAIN
Outline: as §1

SMILES | EC50 (human CYP11B2) | EC50 (human CYP11B1)
O=C1c2ccc(Cl)cc2CCN1c1cccnn1 [Example 52, 6-Chloro-2-pyridazin-3-yl-3,4-dihydro-2H-isoquinolin-1-one] | 382 nM | 2460 nM
CC(O)c1ccncc1N1CCc2cc(Cl)ccc2C1=O (stereo not shown) [Example 55, 6-Chloro-2-[4-(1-hydroxy-ethyl)-pyridin-3-yl]-3,4-dihydro-2H-isoquinolin-1-one] | 343 nM | 9850 nM
O=C1c2ccc(Cl)cc2CCN1c1cnccc1CO [Example 56, 6-Chloro-2-(4-hydroxymethyl-pyridin-3-yl)-3,4-dihydro-2H-isoquinolin-1-one; compound with trifluoro-acctic acid] | 297 nM | 13800 nM
O=C1c2ccc(Cl)cc2CCN1c1cncc(OC(F)F)c1 [Example 60, 6-Chloro-2-(5-difluoromethoxy-pyridin-3-yl)-3,4-dihydro-2H-isoquinolin-1-one] | 70.7 nM | 794 nM
Cn1ccc2cncc(N3CCc4cc(Cl)ccc4C3=O)c21 [Example 65, 6-Chloro-2-(1-methyl-1H-pyrrolo[3,2-c]pyridin-7-yl)-3,4-dihydro-2H-isoquinolin-1-one] | 97.3 nM | 2350 nM
O=C1c2ccc(Cl)cc2CCN1c1cncc(C2CC2)c1 [Example 66, 6-Chloro-2-(5-cyclopropyl-pyridin-3-yl)-3,4-dihydro-2H-isoquinolin-1-one] | 6.9 nM | 69.7 nM
O=C1c2ccc(Cl)cc2CCN1c1cncc(OC2CC2)c1 [Example 68, 6-Chloro-2-(5-cyclopropoxy-pyridin-3-yl)-3,4-dihydro-2H-isoquinolin-1-one] | 6.7 nM | 157 nM
O=C1c2ccc(Cl)cc2CCN1c1cncc2ccccc12 [Example 73, 6-Chloro-3,4-dihydro-[2,4′]biisoquinolinyl-1-one] | 13.5 nM | 251 nM
COCc1c(F)cncc1N1CCc2cc(Cl)ccc2C1=O [Example 75, 6-Chloro-2-(5-fluoro-4-methoxymethyl-pyridin-3-yl)-3,4-dihydro-2H-isoquinolin-1-one] | 166 nM | 2760 nM
COC(C)c1c(F)cncc1N1CCc2cc(Cl)ccc2C1=O (stereo not shown) [Example 76, 6-Chloro-2-[5-fluoro-4-(1-methoxy-ethyl)-pyridin-3-yl]-3,4-dihydro-2H-isoquinolin-1-one] | 492 nM | 13800 nM
Cc1n[nH]c(C)c1-c1cncc(N2CCc3cc(Cl)ccc3C2=O)c1 [Example 79, 6-Chloro-2-[5-(3,5-dimethyl-1H-pyrazol-4-yl)-pyridin-3-yl]-3,4-dihydro-2H-isoquinolin-1-one] | 5.1 nM | 34 nM
Cc1ncn(C)c1-c1cncc(N2CCc3cc(Cl)ccc3C2=O)c1 [Example 80, 6-Chloro-2-[5-(3,5-dimethyl-3H-imidazol-4-yl)-pyridin-3-yl]-3,4-dihydro-2H-isoquinolin-1-one] | 4.7 nM | 58.1 nM
O=C1c2ccc(Cl)cc2CCN1c1cncc(CN2CCCCS2(=O)=O)c1 [Example 81, 6-Chloro-2-[5-(1,1-dioxo-1λ^6-[1,2]thiazinan-2-ylmethyl)-pyridin-3-yl]-3,4-dihydro-2H-isoquinolin-1-one] | 178 nM | 2360 nM
O=C1c2ccc(Cl)cc2CCN1c1cncc(CN2CCCS2(=O)=O)c1 [Example 82, 6-Chloro-2-[5-(1,1-dioxo-1^λ6-isothiazolidin-2-ylmethyl)-pyridin-3-yl]-3,4-dihydro-2H-isoquinolin-1-one] | 78.9 nM | 597 nM
O=C1c2ccc(Cl)cc2CCN1c1cncc(CN2C(=O)CC[C@H]2CO)c1 [Example 83, 6-Chloro-2-[5-((S)-2-hydroxymethyl-5-oxo-pyrrolidin-1-ylmethyl)-pyridin-3-yl]-3,4-dihydro-2H-isoquinolin-1-one] | 590 nM | 15700 nM
COc1cncc(N2C(=O)c3ccc(Cl)cc3CC2C)c1 (stereo not shown) [Example 85, 6-Chloro-2-(5-methoxy-pyridin-3-yl)-3-methyl-3,4-dihydro-2H-isoquinolin-1-one] | 59.6 nM | 2860 nM
CC1Cc2cc(Cl)ccc2C(=O)N1c1cncc(CO)c1 (stereo not shown) [Example 86, 6-Chloro-2-(5-hydroxymethyl-pyridin-3-yl)-3-methyl-3,4-dihydro-2H-isoquinolin-1-one] | 377 nM | 7770 nM

More lines, in order of falling EC50 (human CYP11B2), values ahead:

EC50 (human CYP11B2) | EC50 (human CYP11B1) | SMILES
1280 nM | 8000 nM | NC1(c2cncc(N3CCc4cc(Cl)ccc4C3=O)c2)CC1 [Example 57, 2-[5-(1-Amino-cyclopropyl)-pyridin-3-yl]-6-chloro-3,4-dihydro-2H-isoquinolin-1-one]
761 nM | 1450 nM | COC(c1ccncc1N1CCc2cc(Cl)ccc2C1=O)C1CC1 (stereo not shown) [Example 78, 6-Chloro-2-[4-(cyclopropyl-methoxy-methyl)-pyridin-3-yl]-3,4-dihydro-2H-isoquinolin-1-one]
665 nM | 12800 nM | CC(C)OCc1ccncc1N1CCc2cc(Cl)ccc2C1=O [Example 77, 6-Chloro-2-(4-isopropoxy-methyl-pyridin-3-yl)-3,4-dihydro-2H-isoquinolin-1-one]
588 nM | 16500 nM | O=C1c2ccc(Cl)cc2CCN1c1cncc2cc[nH]c12 [Example 72, 6-Chloro-2-(1H-pyrrolo[3,2-c]pyridin-7-yl)-3,4-dihydro-2H-isoquinolin-1-one]
460 nM | 392 nM | CC(C)(O)c1c(F)cncc1N1CCc2cc(Cl)ccc2C1=O [Example 70, 6-Chloro-2-[5-fluoro-4-(1-hydroxy-1-methyl-ethyl)-pyridin-3-yl]-3,4-dihydro-2H-isoquinolin-1-one]
448 nM | 4430 nM | O=C1c2ccc(Cl)cc2CCN1c1cnccc1C(O)c1ccc(F)cc1 (stereo not shown) [Example 63, 6-Chloro-2-{4-[(4-fluoro-phenyl)-hydroxy-methyl]-pyridin-3-yl}-3,4-dihydro-2H-isoquinolin-1-one]
225 nM | 4830 nM | COC(=O)[C@@H]1CCCN1Cc1cncc(N2CCc3cc(Cl)ccc3C2=O)c1 [Example 84, (S)-1-[5-(6-Chloro-1-oxo-3,4-dihydro-1H-isoquinolin-2-yl)-pyridin-3-ylmethyl]-pyrrolidine-2-carboxylic acid methyl ester]
154 nM | 7540 nM | COCc1ccncc1N1CCc2cc(Cl)ccc2C1=O [Example 69, 6-Chloro-2-(4-methoxymethyl-pyridin-3-yl)-3,4-dihydro-2H-isoquinolin-1-one]
141 nM | 1110 nM | COC[C@@H]1CCCN1Cc1cncc(N2CCc3cc(Cl)ccc3C2=O)c1 [Example 48, 6-Chloro-2-[5-((S)-2-methoxymethyl-pyrrolidin-1-ylmethyl)-pyridin-3-yl]-3,4-dihydro-2H-isoquinolin-1-one]
127 nM | 6310 nM | COC(C)c1ccncc1N1CCc2cc(Cl)ccc2C1=O (stereo not shown) [Example 64, 6-Chloro-2-[4-(1-methoxy-ethyl)-pyridin-3-yl]-3,4-dihydro-2H-isoquinolin-1-one]
120 nM | 10800 nM | O=c1c2ccc(Cl)cc2ccn1-c1cccnc1 [Example 53, 6-Chloro-2-pyridin-3-yl-2H-isoquinolin-1-one]
102 nM | 1200 nM | Cn1ncnc1-c1cncc(N2CCc3cc(Cl)ccc3C2=O)c1 [Example 67, 6-Chloro-2-[5-(2-methyl-2H-[1,2,4]triazol-3-yl)-pyridin-3-yl]-3,4-dihydro-2H-isoquinolin-1-one]
90.2 nM | 1580 nM | Cc1ccnn1Cc1cncc(N2CCc3cc(Cl)ccc3C2=O)c1 [Example 71, 6-Chloro-2-[5-(5-methyl-pyrazol-1-ylmethyl)-pyridin-3-yl]-3,4-dihydro-2H-isoquinolin-1-one]
49.6 nM | 188 nM | COC[C@@H]1CCCN1c1cncc(N2CCc3cc(Cl)ccc3C2=O)c1 [Example 49, 6-Chloro-2-[5-((S)-2-methoxymethyl-pyrrolidin-1-yl)-pyridin-3-yl]-3,4-dihydro-2H-isoquinolin-1-one]
8.1 nM | 135 nM | CSc1cncc(N2CCc3cc(Cl)ccc3C2=O)c1 [Example 59, 6-Chloro-2-(5-methylsulfanyl-pyridin-3-yl)-3,4-dihydro-2H-isoquinolin-1-one]

— patent US9133158B2, “Bicyclic dihydroisoquinoline-1-one derivatives” (Hoffmann-La Roche Inc., priority 2011, dated 2015)
